Data taken from US20190307818A1, “NOVEL ANTIMICROBIAL COMPOSITIONS AND METHODS OF USE” (priority 2016, published 2019).

Tests used:
[1] = tested on: P. aeruginosa PA14 ΔlasI ΔrhII CRISPR adaptation; assay: CRISPR adaptation (new spacer integration by PCR); type: cell-based; settings: ΔlasI ΔrhII strain; AIs 2 μM 3-O—C12-HSL+10 μM C4-HSL given together; Baicalein 100 μM with AIs; vs DMSO
Procedure: FIG. 3. QS inhibitors block CRISPR adaptation and disable QS-mediated bacterial immunity. A P. aeruginosa PA14 ΔlasI ΔrhII QS deficient strain was transformed with foreign DNA (e.g., a CRISPR-targeted plasmid). A single colony from the transformation was re-streaked on selective media containing either DMSO (as a control), AIs (2 μM 3-O—C12-HSL+10 μM C4-HSL), or AIs and a QS inhibitor (2 μM 3-O—C12-HSL+10 μM C4-HSL+100 μM Baicalein). Single colonies were tested for integration of new inserted spacers (conferring immunity) against the CRISPR-targeted plasmid. In particular, PCR primers were designed to amplify specific genomic regions into which spacers were inserted. Primers complementary to the region upstream of the CRISPR region and to the second spacer region were designed, and PCR amplification was utilized to test for the presence of the newly inserted spacer (a process referred to as adaptation).
A P. aeruginosa PA14 ΔlasI ΔrhII QS deficient strain was transformed with foreign DNA (e.g., a CRISPR-targeted plasmid such as pCR2SP1, as described above). A single colony from the transformation was re-streaked on selective medium, e.g., LB medium containing 50 μg/ml gentamicin and either DMSO (as a control), AIs (2 μM 3-O—C12-HSL+10 μM C4-HSL), or both AIs and a QS inhibitor (2 μM 3-O—C12-HSL+[…] C4-HSL+100 μM Baicalein QS inhibitor) and incubated at 37° C. O/N. Single colonies were tested for integration of new immunity spacers against the CRISPR-targeted plasmid by PCR using iProof High-Fidelity DNA Polymerase (Bio-Rad) and primers CR2SP check F+R upstream of the CRISPR2 region and in the second spacer. Thus, PCR primers were designed to amplify the genomic region in which the new spacer was present. Primers targeting a sequence upstream of the CRISPR-Cas region and targeting the second spacer region were designed, and PCR amplification was utilized to test for the presence of the new inserted spacer (a portion of the plasmid sequence inserted between the CRISPR locus and spacers). […]

cas3 = cas3 expression by qRT-PCR; type: cell-based, Pseudomonas aeruginosa PA14; settings: ΔlasI ΔrhII mutant; 100 μM 3-O—C12-HSL and 100 μM C4-HSL given together; normalized to 5S ribosomal RNA
Procedure: In one example protocol, P. aeruginosa PA14 and mutants were grown overnight at 37° C. with shaking in LB broth. Cultures were back diluted 1:100 and grown to the indicated OD600 in the presence or absence of DMSO, 3-O—C12-HSL, C4—HSL (Sigma) or Baicalein (Cayman Chemical) at the specified concentrations. LB was supplemented with 50 μg/ml Gentamicin where appropriate.
For Quantitative Real Time-PCR (qRT-PCR), bacteria were harvested at the indicated OD600. RNA was purified using Trizol (Ambion), DNAse treated using DNA-free (Ambion), cDNA was synthesized using SuperScript® III Reverse Transcriptase (Invitrogen) and quantified using PerfeCTa® SYBR® Green FastMix®, Low ROX (Quanta Biociences).
Quantitative Real Time-PCR (qRT-PCR) was utilized to determine the relative expression of cas3 in each of these mutant strains. Additionally, 100 μM 3-O—C12-HSL and 100 μM C4-HSL, which are AIs that rescue cas3 expression, were added to the cell culture comprising the mutant strain ΔlasI ΔrhII. It is understood that other concentrations of 3-O—C12-HSL and C4—HSL are also suitable, e.g., the concentrations may be in the range of 2 μM to 100 μM, from 10 μM to 100 μM or from 2 μM to 10 μM. In some embodiments, 2 μM of 3-O—C12-HSL and 10 μM of C4-HSL were used. The expression profiles for cas3 for each strain were then normalized based on expression of 5S ribosomal RNA. […]

CRISPR-Cas system = assay: Transformation assay, efficiency of transformation (EOT); type: cell-based, P. aeruginosa PA14; settings: ΔlasI ΔrhII mutant; both AIs added together
Procedure: Bacteria were grown to the appropriate OD600, washed twice at RT in 300 mM sucrose, and electroporated with 1 μg empty vector plasmid pHERD30T or pCR2SP1 containing a phage-derived sequence specifically targeted for degradation by CRISPR-Cas (Bondy-Denomy, Pawluk et al. 2013). 1 ml LB was added and the bacteria were grown 1 h at 37° C. with shaking, after which they were plated on selective medium, e.g., LB medium containing 50 μg/ml gentamicin, and incubated overnight at 37° C. Bacterial colonies were counted using Image Quant Las 4000 and Image Quant TL software (GE Healthcare). Colony forming units (CFU)/ml were quantified and the efficiency of transformation was calculated as the percentage of colonies transformed by pCR2SP1 compared to those transformed by the empty vector control pHERD30T.
This assay utilizes a plasmid as a proxy for a phage, to quantify the frequency with which a foreign genetic material is identified and targeted for degradation by the host bacterial immune system. For bacterial cells having a functional CRISPR-Cas system, the plasmid will be targeted for destruction, and no colonies will grow on the plate, as antibiotic resistance has been lost.
For cells lacking a CRISPR-Cas system or having an impaired or partially functioning CRISPR-Cas system, the electroporated plasmid evades destruction by the bacterial host and is able to replicate. […]

[2] = tested on: Wild-type P. aeruginosa pyocyanin production; settings: previously shown; cited from earlier work

Row | Molecule | CRISPR adaptation (fraction of cells in the colony that adapted) [1] | cas3 expression (cas3) | immune activity (efficiency of transformation) (CRISPR-Cas system) | pyocyanin production [2]
1 | CCCCCCCCCC(=O)CC(=O)N[C@H]1CCOC1=O [3-O—C12-HSL] | increased the fraction of cells in the colony that adapted | restore cas3 expression to WT levels | restored immune activity to nearly WT levels | 
2 | CCCC(=O)N[C@H]1CCOC1=O [Molecule C4-HSL, N-butyryl-L-homoserine lactone] | increased the fraction of cells in the colony that adapted | restore cas3 expression to WT levels | restored immune activity to nearly WT levels | 
3 | meta-bromothiolactone [mBTL] |  |  |  | inhibit pyocyanin production
